Assay [1] has as its target T1, [3H]-NMS-occupied muscarinic hM5 subtype (Homo sapiens, UniProt P08912).
T1 construct: expressed in transfected cells; host or cells: CHO cells, stably transfected; membrane fractions
T1 sequence (P08912 1-532): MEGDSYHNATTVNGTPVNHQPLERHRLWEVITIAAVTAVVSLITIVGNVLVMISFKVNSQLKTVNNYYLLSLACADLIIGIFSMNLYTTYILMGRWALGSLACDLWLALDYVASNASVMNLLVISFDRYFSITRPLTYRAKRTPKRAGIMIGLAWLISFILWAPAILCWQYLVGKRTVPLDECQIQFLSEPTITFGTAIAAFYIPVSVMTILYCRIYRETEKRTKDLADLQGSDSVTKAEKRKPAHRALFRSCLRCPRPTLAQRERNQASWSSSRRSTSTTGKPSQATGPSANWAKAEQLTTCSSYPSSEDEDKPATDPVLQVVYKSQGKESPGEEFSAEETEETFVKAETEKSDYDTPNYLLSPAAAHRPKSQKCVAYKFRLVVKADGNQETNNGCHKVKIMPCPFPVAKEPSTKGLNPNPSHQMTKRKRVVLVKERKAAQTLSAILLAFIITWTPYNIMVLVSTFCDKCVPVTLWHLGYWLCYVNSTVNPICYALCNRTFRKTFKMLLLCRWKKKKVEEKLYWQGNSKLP
Kind of assay: One point kinetic (off-rate) assay of [3H]-NMS dissociation. The class given is binding. Particulars: read-out: log Kocc hM5 (converted). The method, then:
(§1) All tested compounds were purchased from Merck KGaA (Darmstadt, Germany). The radioligand binding experiments were performed with membranes from Chinese Hamster Ovary (CHO) cells stably transfected with the five cloned human muscarinic receptor subtypes (hM1-5). Membrane fractions were prepared according to the protocol, which have been previously described; membranes were stored at −80 °C until use. Nonspecific binding was defined by the radioactivity bound in the presence of 10 µM atropine.
(§2) Off-rate assays were performed as described elsewhere to estimate the affinity of the ligands for the [^3H]-NMS-occupied receptor (log Kocc). Briefly, a high concentration of membranes (about 0.1 mg/mL) was incubated with a high concentration of [^3H]-NMS (2 nM) for 60 min at room temperature (mix membrane). Next, 100 µL aliquots were distributed into polypropylene tubes that were empty or in a final volume of 1 mL binding buffer with 1 µM atropine alone and in the presence of a range of concentrations of tested compound (1 nM–0.1 mM).
(§3) The effect on the radioligand dissociation of each tested ligand was determined at 0 min and at one time point, which was chosen to be ca 2.5 dissociation half-lives of [^3H]-NMS alone from each subtype receptors. Later (80 min for hM1, 20 min for hM2 and 70 min for hM5), the samples were filtered and counted as previously reported. Non specific binding was measured as previously reported.
Data from one-point kinetic experiments were analyzed in order to obtain estimates of the affinity of an allosteric ligand for the [^3H]-NMS occupied receptor (log Kocc) in a single step, using an equation introduced in GraphPad Prism 5.02 [33, 34].
(§4) All the results are expressed as means ± SEM obtained from 3-4 independent experiments each one performed in duplicate.

Assay [2] has as its target T2, [3H]-NMS-occupied muscarinic hM2 subtype (Homo sapiens, UniProt P08172).
T2 construct: expressed in transfected cells; host or cells: CHO cells, stably transfected; membrane fractions
T2 sequence (P08172 1-466): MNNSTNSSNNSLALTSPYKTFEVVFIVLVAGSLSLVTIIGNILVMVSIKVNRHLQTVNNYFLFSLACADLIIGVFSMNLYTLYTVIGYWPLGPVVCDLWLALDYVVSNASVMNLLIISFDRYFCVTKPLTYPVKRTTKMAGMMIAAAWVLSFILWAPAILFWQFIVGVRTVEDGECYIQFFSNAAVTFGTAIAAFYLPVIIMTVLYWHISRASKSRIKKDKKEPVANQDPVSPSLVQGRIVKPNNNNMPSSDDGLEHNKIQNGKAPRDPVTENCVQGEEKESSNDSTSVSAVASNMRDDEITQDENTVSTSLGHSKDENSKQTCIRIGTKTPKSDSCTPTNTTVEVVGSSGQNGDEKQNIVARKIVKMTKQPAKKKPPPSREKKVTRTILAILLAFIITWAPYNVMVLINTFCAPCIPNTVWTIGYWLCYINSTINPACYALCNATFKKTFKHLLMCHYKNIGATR
Described as above. The class given is binding. The method, then: as §1, §2, §3, §4

Consider `Cc1cc(N)c2ccccc2[n+]1CCCCCCCCCC[n+]1c(C)cc(N)c2ccccc21` [dequalinium], for which the values for the Kd in assay [1] and in assay [2] (read-out: Log Kocc hM2 (converted)) were 3.31 µM and 0.0191 µM, respectively. Moreover, in assay [2] (from log Kocc values), the “selectivity ratio hM2/hM1” value turned out to be 10.7. Further, in assay [2] (from log Kocc values), the “selectivity ratio hM2/hM5” value came to 174.

The values above are taken from paper PMC7503225, “Repositioning Dequalinium as Potent Muscarinic Allosteric Ligand by Combining Virtual Screening Campaigns and Experimental Binding Assays” (International Journal of Molecular Sciences, 2020).
